Values quoted from earlier work, collected in patent US20120015968A1, “USE OF PYRIMIDYLAMINOBENZAMIDE DERIVATIVES FOR THE TREATMENT OF DISORDERS MEDIATED BY THE LEUCINE ZIPPER-AND STERILE ALPHA MOTIF-CONTAINING KINASE (ZAK)” (NOVARTIS AG, priority 2009, published 2012).

Molecular target: ZAK (Homo sapiens, UniProt Q9NYL2)
Details: biotinylated myelin basic protein as substrate; U. Rix et al, Leukemia (2010) 24, 44-50, p. 48; read-out: IC50 of inhibition of ZAK activity

ZAK, sequence (Q9NYL2 whole entry): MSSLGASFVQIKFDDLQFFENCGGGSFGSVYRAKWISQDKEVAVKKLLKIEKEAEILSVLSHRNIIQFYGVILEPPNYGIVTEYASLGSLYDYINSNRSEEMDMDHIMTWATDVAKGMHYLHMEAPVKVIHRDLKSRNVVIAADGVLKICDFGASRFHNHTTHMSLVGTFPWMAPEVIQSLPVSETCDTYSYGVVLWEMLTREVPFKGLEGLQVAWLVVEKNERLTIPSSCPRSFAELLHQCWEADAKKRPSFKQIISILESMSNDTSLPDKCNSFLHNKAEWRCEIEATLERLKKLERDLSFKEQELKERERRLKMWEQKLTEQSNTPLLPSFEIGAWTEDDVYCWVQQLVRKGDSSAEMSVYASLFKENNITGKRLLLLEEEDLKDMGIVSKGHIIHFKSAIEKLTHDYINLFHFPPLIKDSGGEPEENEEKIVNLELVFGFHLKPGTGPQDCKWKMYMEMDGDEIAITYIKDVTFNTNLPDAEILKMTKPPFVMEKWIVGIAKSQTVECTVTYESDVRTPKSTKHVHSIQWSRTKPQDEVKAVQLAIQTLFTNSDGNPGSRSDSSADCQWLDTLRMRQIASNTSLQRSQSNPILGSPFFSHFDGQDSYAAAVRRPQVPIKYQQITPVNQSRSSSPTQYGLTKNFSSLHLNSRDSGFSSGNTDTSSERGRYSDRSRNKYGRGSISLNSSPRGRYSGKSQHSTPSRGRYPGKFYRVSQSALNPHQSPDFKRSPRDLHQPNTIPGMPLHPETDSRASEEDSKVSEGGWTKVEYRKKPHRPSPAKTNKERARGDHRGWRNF

Q: Which IC50 does the source give for `Cc1ccc(NC(=O)c2ccc(CN3CC[C@H](N(C)C)C3)c(C(F)(F)F)c2)cc1Nc1nccc(-c2cncnc2)n1` [INNO-406] here?
A: The IC50 was 73 nM.
